Data taken from patent US12351559B2 (Biohaven Therapeutics Ltd., priority 2014, dated 2025).

Each compound was assayed against T1, Kv7.2/7.3 (Homo sapiens, UniProt O43525+O43526) (assay: Kv7.2/7.3 activation assay, QPatch planar patch-clamp, single concentration screen). Settings: Kv7.2/Kv7.3 co-expressing HEK cells, compound 3 μM, steady-state current at end of 2 s pulse to −30 mV.
T1 construct: host or cells: HEK cells, tetracycline-inducible expression
Format: cell-based
Parameters: key: <1.2-fold increase over baseline (−); +/−: as a range from <1.2-fold increase over baseline (−) up to >6-fold increase over baseline (+++); as a range from <1.2-fold increase over baseline (−) up to >6-fold increase over baseline (+++); as a range from <1.2-fold increase over baseline (−) up to >6-fold increase over baseline (+++); >6-fold increase over baseline (+++)
Method: The ability of compounds to potentiate K-currents in Kv7.2/7.3 containing HEK cells was assessed using planar patch-clamp on the QPatch automated screening platform.
Cell Line: The hKv7.2/7.3 cell line was obtained from Chantest (Cleveland, OH 44128) cat. #CT6147. These HEK cells will express the Kv7.2/7.3 ion channels when induced.
Cell Culture: Cells were maintained in a media containing DMEM/F12; 50/50 (GIBCO cat. #11330), 10% Fetal Bovine Serum (FBS) (GIBCO cat. #26140), 100 units/mL Penicillin-Streptomycin (GIBCO cat. #15140), 0.005 mg/mL Blasticidin (INVIVOGEN cat. #ant-bl-1), 0.5 mg/mL Geneticin (GIBCO cat. #10131), 0.1 mg/ml Zeocin (GIBCO cat. #R25001). Cells used in the electrophysiology assay were maintained in a media without Blasticidin, Geneticin and Zeocin for 2 days and channel expression was induced by adding tetracycline (BIOLINE cat. #BIO-87030) at a final concentration of 1 mg/mL. Cells were grown in T-175 flask to ˜75% confluency. Currents were recorded 24 hours after channel induction.
Compound Plates: Test compounds were prepared by performing serial dilutions on a Biomek NX^P (BECKMAN COULTER). Final dilutions were made in external recording solution with a final DMSO concentration of 0.1% DMSO. For single concentration screens each plate had 10 μM retigabine as a positive control and 0.1% DMSO as a negative control.
Electrophysiology: On the day of the experiment cells were washed with Hank's Balanced Salt Solution (HBBS) (GIBCO cat. #14175) and harvested with Tryple (GIBCO cat. #12604). Cells were then centrifuged at 2000 rpm for 5 minutes and resuspended in CHO-S-SFM (GIBCO cat. #12052) at ˜3×10^6 cells/mL. Cells were stirred for 30 minutes before experiments were started. External recording solution contained (in mM): NaCl (145), KCl (4), CaCl2 (2), MgCl2 (1), HEPES (10) and Glucose (10); pH was adjusted to 7.4 with NaOH and the osmolarity was adjusted to 300-305 mOsM with sucrose if necessary. Internal solution contained (in mM): KCl (125), KF (10), EGTA (5), Na2ATP (5), MgCl2 (3.2), HEPES (5); pH was adjusted to 7.2 with KOH and the osmolarity was adjusted to 298-302 mOsM with sucrose.
Potassium channel activity was measured on the QPatch HTX (Sophion Bioscience) using QPlates with 48-wells/plate. Each cell was taken as an independent experiment and only one compound was tested per well. Potassium channel activity was elicited by holding at −80 mV and stepping to −30 mV for 2 s followed by a 100 ms pulse to −120 mV.
Single concentration screen: Baseline conditions were obtained by recording 5 sweeps in the external solution only, this was repeated for three applications of the external solution. […] The steady-state current at the end of the 2 s pulse to −30 mV was measured to determine the fold increase from baseline.

| SMILES | Kv7.2/7.3 Activity: increase in current over baseline |
| --- | --- |
| C[C@@](O)(CC(=O)Nc1nc2ccc(C#N)cc2n1C1CCC1)c1ccccc1 [Example 30, (R)-N-(6-cyano-1-cyclobutyl-1H-benzo[d]imidazol-2-yl)-3-hydroxy-3-phenylbutanamide] | + |
| CC(C)(O)CC(=O)Nc1nc2ccc(C(F)(F)F)cc2n1-c1ccc(OC(F)(F)F)c(F)c1 [Example 144, N-(1-(3-fluoro-4-(trifluoromethoxy)phenyl)-6-(trifluoromethyl)-1H-benzo[d]imidazol-2-yl)-3-hydroxy-3-methylbutanamide] | + |
| O=C(CC1(O)CCC1)Nc1nc2ccc(C(F)(F)F)cc2n1-c1ccc(OC(F)(F)F)c(F)c1 [Example 145, N-(1-(3-fluoro-4-(trifluoromethoxy)phenyl)-6-(trifluoromethyl)-1H-benzo[d]imidazol-2-yl)-2-(1-hydroxycyclobutyl)acetamide] | ++ |
| C[C@@](O)(CC(=O)Nc1nc2ccc(Cl)cc2n1-c1ccc(F)cc1)c1ccccc1 [Example 108, (R)-N-(6-chloro-1-(4-fluorophenyl)-1H-benzo[d]imidazol-2-yl)-3-hydroxy-3-phenylbutanamide] | +/− |
| Cc1cc2nc(NC(=O)C[C@@](C)(O)C(F)(F)F)n(C(C)(C)C)c2cc1C#N [Example 135, (R)-N-(1-(tert-butyl)-6-cyano-5-methyl-1H-benzo[d]imidazol-2-yl)-4,4,4-trifluoro-3-hydroxy-3-methylbutanamide] | +/− |
| CC(C(=O)Nc1nc2ccc(C#N)cc2n1C1CCC1)C(C)(C)C (centres unmarked) [Example 77, N-(6-cyano-1-cyclobutyl-1H-benzo[d]imidazol-2-yl)-2,3,3-trimethylbutanamide] | + |
| CC(C)(C)CC(=O)Nc1nc2ccc(C#N)cc2n1-c1ccc(F)cn1 [Example 74, N-(6-cyano-1-(5-fluoropyridin-2-yl)-1H-benzo[d]imidazol-2-yl)-3,3-dimethylbutanamide] | + |
| COC(C)(C)CC(=O)Nc1nc2ccc(C#N)cc2n1C1CCC1 [Example 12, N-(6-cyano-1-cyclobutyl-1H-benzo[d]imidazol-2-yl)-3-methoxy-3-methylbutanamide] | +/− |
| CC1(C)CCC[C@@H](CC(=O)Nc2nc3ccc(C(C)(C)O)cc3n2C2CCC2)O1 [Example 83, (S)-N-(1-cyclobutyl-6-(2-hydroxypropan-2-yl)-1H-benzo[d]imidazol-2-yl)-2-(6,6-dimethyltetrahydro-2H-pyran-2-yl)acetamide] | ++ |
| CC(C)[C@H](C)C(=O)Nc1nc2ccc(CO)cc2n1C1CCC1 [Example 52, (S)-N-(1-cyclobutyl-6-(hydroxymethyl)-1H-benzo[d]imidazol-2-yl)-2,3-dimethylbutanamide] | +/− |
| Cc1cc2nc(NC(=O)C[C@](C)(O)c3ccccc3F)n(C(C)(C)C)c2cc1C#N [Example 122, (S)-N-(1-(tert-butyl)-6-cyano-5-methyl-1H-benzo[d]imidazol-2-yl)-3-(2-fluorophenyl)-3-hydroxybutanamide] | ++ |
| CC(C)[C@H](C)C(=O)Nc1nc2ccc(C#N)cc2n1-c1ccc(F)cc1 [Example 32, (S)-N-(6-cyano-1-(4-fluorophenyl)-1H-benzo[d]imidazol-2-yl)-2,3-dimethylbutanamide] | + |
| Cc1cc2nc(NC(=O)C[C@](C)(O)C(F)(F)F)n(C(C)(C)C)c2cc1C#N [Example 134, (S)-N-(1-(tert-butyl)-6-cyano-5-methyl-1H-benzo[d]imidazol-2-yl)-4,4,4-trifluoro-3-hydroxy-3-methylbutanamide] | +/− |
| Cc1cc2nc(NC(=O)C[C@](C)(O)c3ccccc3)n(C(C)(C)C)c2cc1C#N [Example 119, (S)-N-(1-(tert-butyl)-6-cyano-5-methyl-1H-benzo[d]imidazol-2-yl)-3-hydroxy-3-phenylbutanamide] | +/− |
| CC(C)(C)CC(=O)Nc1nc2ccc(C#N)cc2n1C1CCC1 [Example 5, N-(6-cyano-1-cyclobutyl-1H-benzo[d]imidazol-2-yl)-3,3-dimethylbutanamide] | +++ (>6-fold increase over baseline (+++)) |
| Cc1cc(-n2c(NC(=O)CC(C)(C)C)nc3ccc(C#N)cc32)on1 [Example 69, N-(6-cyano-1-(3-methylisoxazol-5-yl)-1H-benzo[d]imidazol-2-yl)-3,3-dimethylbutanamide] | + |
| C[C@H](C(=O)Nc1nc2ccc(C#N)cc2n1-c1ccc(F)cn1)C(C)(C)C [Example 75, (S)-N-(6-cyano-1-(5-fluoropyridin-2-yl)-1H-benzo[d]imidazol-2-yl)-2,3,3-trimethylbutanamide] | ++ |
| CCOC(=O)c1ccc2nc(NC(=O)CC(C)(C)C)n(C3CCC3)c2c1 [Example 50, ethyl 1-cyclobutyl-2-(3,3-dimethylbutanamido)-1H-benzo[d]imidazole-6-carboxylate] | +/− |
| CCC(O)c1ccc2nc(NC(=O)CC(C)(C)C)n(C3CCC3)c2c1 (centres unmarked) [Example 57] | + |
| N#Cc1ccc2nc(NC(=O)C[C@@H](O)c3ccccc3)n(C3CCC3)c2c1 [Example 25, (R)-N-(6-cyano-1-cyclobutyl-1H-benzo[d]imidazol-2-yl)-3-hydroxy-3-phenylpropanamide] | +/− |
| CC(C)(O)c1ccc2nc(NC(=O)C3CC34CC4)n(C3CCC3)c2c1 (centres unmarked) [Example 105, N-(1-cyclobutyl-6-(2-hydroxypropan-2-yl)-1H-benzo[d]imidazol-2-yl)spiro[2.2]pentane-1-carboxamide] | + |
| Cc1cc(-n2c(NC(=O)[C@@H](C)C(C)C)nc3ccc(C(F)(F)F)cc32)on1 [Example 47, (S)-2,3-dimethyl-N-(1-(3-methylisoxazol-5-yl)-6-(trifluoromethyl)-1H-benzo[d]imidazol-2-yl)butanamide] | + |
| N#Cc1ccc2nc(NC(=O)[C@@H]3C[C@@H]4CC[C@H]3C4)n(C3CCC3)c2c1 [Example 10, (1S,2R,4R)-N-(6-cyano-1-cyclobutyl-1H-benzo[d]imidazol-2-yl)bicyclo[2.2.1]heptane-2-carboxamide] | + |
| CC(C)(O)CC(=O)Nc1nc2ccc(C#N)cc2n1C1CCC1 [Example 8, N-(6-cyano-1-cyclobutyl-1H-benzo[d]imidazol-2-yl)-3-hydroxy-3-methylbutanamide] | + |
| Cc1cc2nc(NC(=O)C[C@](C)(O)c3ccc(F)cc3)n(C(C)(C)C)c2cc1C#N [Example 121, (S)-N-(1-(tert-butyl)-6-cyano-5-methyl-1H-benzo[d]imidazol-2-yl)-3-(4-fluorophenyl)-3-hydroxybutanamide] | + |
| Cc1cc2nc(NC(=O)CC(C)(C)O)n(C(C)(C)C)c2cc1C#N [Example 128, N-(1-(tert-butyl)-6-cyano-5-methyl-1H-benzo[d]imidazol-2-yl)-3-hydroxy-3-methylbutanamide] | +/− |
